Experimental data: US20130157973A1, “PHARMACEUTICAL COMPOSITIONS AND METHODS FOR TREATING GASTROINTESTINAL INFECTIONS AND DISORDERS” (priority 2011, published 2013)
Read-outs that look alike come from different tables or passages of the source.

Tests used:
[1] = Single-dose pharmacokinetics of Compound B, fasted and fed cohorts; type: in vivo, human; settings: for Cmax / AUC(0-inf) / half-life / Tmax: human, plasma, oral; for Cmax: read-out: Cmax Mean (% CV); for AUC(0-inf): read-out: AUCinf Mean (% CV); for Tmax: read-out: Tmax Median (Q1, Q3)
Procedure: Table 1 and Table 2 present the PK parameters of Compound B following the administration of a single dose of Compound B in the fasted cohorts and fed cohorts, respectively. Mean maximal plasma concentration values (Cmax) were higher with increasing dose in the fasted treatment groups. Mean maximal plasma concentration values were lower when Compound B (8 mg) was administered with moderate- or high-fat meal or following a high fat-meal than when Compound B was administered under fasting conditions.

[2] = Phase IIa studies in chronic HCV subjects: safety, neutrophil and lymphocyte counts, liver enzymes; type: in vivo, human; settings: for proportion of subjects with AST elevations / proportion of subjects with ALT elevations: French study, 0.02 mg/kg group
Procedure: Single center study (France): 6 subjects received 0.01 mg/kg, 11 received 0.02 mg/kg and 6 received placebo.
Exclusion criteria included clinically meaningful cirrhosis on prior liver biopsy (U.S. study), positive serology for possible autoimmune hepatitis (ANA˜1:640, ASMA>1:320, ALKM antibody>1:320), hepatocellular neoplasia, anemia (<12 g/dL for men, <11 for women), thrombocytopenia (<90,000/μL), leukopenia (<2500 cells/μL), neutropenia (<1500 cells/μL, U.S. study), ALT>1000 U/L (French study) or aspartate aminotransferase (AST) or ALT>500 U/L (U.S. study), bilirubin>1 mg/dL, decompensated liver disease, other liver diseases, positive serology for HIV, positive HBsAg, prior organ transplantation, significant psychiatric disease, alcohol or drug abuse within 12 months, systemic immunomodulatory or investigational therapy within 3 months, and significant cardiac, pulmonary, systemic inflammatory or thyroid disease.
In the U.S. study, subjects were assigned centrally across centers. Active to placebo assignment was 3:1 for each cohort. Sample sizes were not prospectively powered.
All subjects were to receive study drug two times per week for 4 weeks. Subjects self-administered study drug at home except on study visits with pharmacokinetic and pharmacodynamic sampling where it was administered in the clinic. […] In the U.S. study, subjects received 0.01 mg/kg of resiquimod.
(§1) Serum IL-6, IL-1RA, TNF-α and IFN-γ were measured by enzyme-linked immunosorbent assay (Immunotech, Cedex, France) and neopterin by immunoenzymatic assay (Immunotech, Cedex, France). Serum type I IFN levels were determined by bioassay. Serum 2′,5′ oligoadenylate synthetase (2′5′ AS) was measured by radioimmunoassay (Eiken Chemical Co. Ltd., Tokyo, Japan). Serum IL-12 p40 was measured by enzyme-linked immunosorbent assay (R&D Systems, Minneapolis, Minn.) Immunophenotyping of T lymphocytes in the U.S. study was performed at NGI.

[3] = test system: serum HCV RNA; experiment: Phase IIa studies: serum HCV RNA by quantitative polymerase chain reaction; type: in vivo, hepatitis C virus
Procedure: Two randomized, double-blind phase IIa studies of Compound B administered two times per week for 4 weeks. Multicenter study (U.S.): 12 subjects received Compound B 0.01 mg/kg and 4 received placebo. Single center study (France): 6 subjects received 0.01 mg/kg, 11 received 0.02 mg/kg and 6 received placebo.
Serum HCV RNA was measured by quantitative polymerase chain reaction (NGI). Subjects were categorized as responders (reduction from baseline of ˜2 logs) or non-responders at the end-of-treatment visit (day 29), and at the last follow-up visit (day 113 U.S. study, and day 57 French study).

[4] = test system: IFN-α; experiment: Phase IIa studies: serum type I IFN levels by bioassay; type: in vivo, human
Procedure: as §1, with “Samples for cytokines were obtained at 0, 2, 4, 6, 8, 12 and 24 h after the first dose, prior to dosing at days 8, 15, 22 or 25 (see above regarding pharmacokinetics) and day 29. Serum IL-6,” for “Serum IL-6,”

[5] = Placebo-controlled single and multiple administration tolerability studies in healthy adults; type: in vivo; settings: single administration study in 48 healthy adults, up to 0.05 mg/kg
[6] = 0.3 mg, single dose 0.3 mg, Cohort 1, fasted
[7] = 1 mg, single dose 1 mg, Cohort 2, fasted
[8] = 2 mg, single dose 2 mg, Cohort 3, fasted
[9] = 4 mg, single dose 4 mg, Cohort 4, fasted
[10] = 6 mg, single dose 6 mg, Cohort 5, fasted
[11] = 8 mg, single dose 8 mg post high-fat meal (4 hours), Cohort 9
[12] = 8 mg, single dose 8 mg with a high-fat meal, IFE Cohort
[13] = 8 mg, single dose 8 mg with a moderate-fat meal, Cohort 8
[14] = 8 mg, single dose 8 mg, Cohort 6, fasted
[15] = 12 mg, single dose 12 mg, Cohort 7, fasted
[16] = of the 11 subjects with at least a 1-log reduction at any time

CCCCOc1nc(N)c2c(n1)N(Cc1cccc(CN3CCCC3)c1)CC(=O)N2 [Compound B, 4-amino-2-butoxy-8-(3-(pyrrolidin-1-ylmethyl)benzyl)-7,8-dihydropteridin-6(5H)-one]
Mean maximal plasma concentration fed vs fasting ([1]; 8 mg with moderate- or high-fat meal or following a high-fat meal, vs fasting conditions): lower
Cmax [1, 6]: 0.184 ng/mL
AUC(0-inf) ([1]; 0.3 mg, single dose 0.3 mg, Cohort 1, fasted, limited terminal phase data, interpret with caution): 2.97 ng·h/mL
half-life ([1]; 0.3 mg, single dose 0.3 mg, Cohort 1, fasted, plasma measured only to 24 hours, interpret with caution, read-out: T½ Median (Q1, Q3) (converted)): 10.4 h
Tmax [1, 6]: 3 h
Cmax [1, 7]: 0.44 ng/mL
AUC(0-inf) [1, 7]: 9.23 ng·h/mL
Tmax [1, 7]: 3 h
half-life ([1]; 1 mg, single dose 1 mg, Cohort 2, fasted, read-out: T½ Median (Q1, Q3) (converted)): 26.9 h
Cmax [1, 8]: 0.633 ng/mL
AUC(0-inf) [1, 8]: 11.3 ng·h/mL
Tmax [1, 8]: 6 h
half-life ([1]; 2 mg, single dose 2 mg, Cohort 3, fasted, read-out: T½ Median (Q1, Q3) (converted)): 24.3 h
Cmax [1, 9]: 2.93 ng/mL
AUC(0-inf) [1, 9]: 57.2 ng·h/mL
Tmax [1, 9]: 4 h
half-life ([1]; 4 mg, single dose 4 mg, Cohort 4, fasted, read-out: T½ Median (Q1, Q3) (converted)): 17.2 h
Cmax [1, 10]: 7.26 ng/mL
AUC(0-inf) [1, 10]: 76.9 ng·h/mL
Tmax [1, 10]: 2.5 h
half-life ([1]; 6 mg, single dose 6 mg, Cohort 5, fasted, read-out: T½ Median (Q1, Q3) (converted)): 14.7 h
AUC(0-inf) [1, 11]: 79.5 ng·h/mL
Cmax [1, 11]: 4.53 ng/mL
Tmax [1, 11]: 5 h
half-life ([1]; 8 mg, single dose 8 mg post high-fat meal (4 hours), Cohort 9, read-out: T½ Median (Q1, Q3) (converted)): 20.5 h
AUC(0-inf) [1, 12]: 71.4 ng·h/mL
Cmax [1, 12]: 5.24 ng/mL
Tmax [1, 12]: 3 h
half-life ([1]; 8 mg, single dose 8 mg with a high-fat meal, IFE Cohort, read-out: T½ Median (Q1, Q3) (converted)): 23.6 h
AUC(0-inf) [1, 13]: 51.1 ng·h/mL
Cmax [1, 13]: 2.04 ng/mL
Tmax [1, 13]: 2 h
half-life ([1]; 8 mg, single dose 8 mg with a moderate-fat meal, Cohort 8, read-out: T½ Median (Q1, Q3) (converted)): 21.6 h
Cmax [1, 14]: 8.34 ng/mL
AUC(0-inf) [1, 14]: 109 ng·h/mL
Tmax [1, 14]: 2.51 h
half-life ([1]; 8 mg, single dose 8 mg, Cohort 6, fasted, read-out: T½ Median (Q1, Q3) (converted)): 19.5 h
Cmax [1, 15]: 12 ng/mL
AUC(0-inf) [1, 15]: 140 ng·h/mL
Tmax [1, 15]: 1.51 h
half-life ([1]; 12 mg, single dose 12 mg, Cohort 7, fasted, read-out: T½ Median (Q1, Q3) (converted)): 16.3 h
half-life ([1]; all groups except the 0.3-mg group, read-out: Median terminal half-life values across groups): 14.7 to 26.9 h
proportion of subjects with AST elevations ([2]; day 1 (6/11)): 55%
proportion of subjects with ALT elevations ([2]; day 1 (9/11)): 82%
proportion of subjects with AST elevations ([2]; day 29 (1/9)): 11%
proportion of subjects with ALT elevations ([2]; day 29 (5/9)): 56%
ALT and AST levels ([2]; U.S. study, 0.01 mg/kg): Neither ALT nor AST levels appeared to be affected
changes in physical examinations ([2]; both studies): no clinically meaningful changes
Clinically relevant changes in CD4+ lymphocyte counts or CD4+/CD8+ lymphocyte ratios ([2]; human, in vivo): not observed
adverse effects ([2]; oral 0.02 mg/kg): adverse effects similar to interferon-alpha
subjects with at least a 1-log reduction in HCV levels at any time during the study ([3]; 0.01 mg/kg group): five
subjects with at least a 1-log reduction in HCV levels at any time during the study ([3]; 0.02 mg/kg group): six
subjects with maximal reduction in viral levels of at least 1-log ([3]; 0.02 mg/kg group): Two
subjects with maximal reduction in viral levels of at least 2-logs ([3]; 0.02 mg/kg group): three
subjects with maximal reduction in viral levels of at least 3-logs ([3]; 0.02 mg/kg group): one
responders per protocol (2 log reduction) at end-of-treatment visit ([3]; 0.02 mg/kg, day 29, not sustained on follow-up): one
subjects whose HCV Rmax occurred at day 29 or after [3, 16]: 5 subjects
subjects whose HCV Rmax occurred within 48 h after dose 1 [3, 16]: 6 subjects
effect on viral levels ([3]; oral 0.02 mg/kg): transiently reduced viral levels
serum HCV RNA levels after the first dose ([3]; peaking at about 24 h, trending toward baseline by 48 h): dose-dependent decrease
IFN-α Rmax post-dose 1 of individual subject ([4]; 0.02 mg/kg subject who discontinued treatment for severe grade flu-like symptoms): 3946 IU/mL
IFN-α Rmax post-dose 1 of individual subject ([4]; 0.02 mg/kg subject who discontinued treatment for severe grade lymphopenia): 15,557 IU/mL
maximum tolerated oral dose [5]: 0.03 mg/kg
